Legend:
HCoV 229E = HCoV 229E cytopathic effect (CPE) assay, CellTiter Glo; type: cell-based, Human Coronavirus (HCov) 229E; conditions: protection from virus-induced CPE
Description: The antiviral activity of compounds is calculated based on the protection of the virus-induced CPE at each concentration normalized by the virus control.
Reagents and instruments used in this assay include luminescent cell viability assay kit CellTiter Glo (Promega) and Microplate Reader Synergy2 (BioTek).
Cytopathic effect (CPE) is measured by CellTiter Glo following the manufacturer's manual. The antiviral activity of compounds is calculated based on the protection of the virus-induced CPE at each concentration normalized by the virus control.

229E Mpro = target: T1, 229E Mpro (Human coronavirus 229E, UniProt P0C6X1); test: 229E Mpro assay (Table 3); type: biochemical, Human Coronavirus (HCov) 229E
T1 construct: Mpro
Description: Compounds are assayed using standard methods to assess compound activity and IC50. […] The assay buffer contains 20 mM of Tris-HCl (pH 7.3), 100 mM of NaCl, 1 mM of EDTA, 5 mM of TCEP and 0.1% BSA.
The compounds are added to an assay plate.
IC50 values of compounds are calculated with the GraphPad Prism software using the nonlinear regression model of log(inhibitor) vs. response—Variable slope (four parameters). The inhibition activity is calculated using the formula below, IC50 values is calculated using the Inhibition % data. Inhibition %=[(Sample−Average ZPE)/(Average HPE−Average ZPE)]*100%^# • ^#HEP: Hundred percent effect controls. […] Containing enzyme+substrate, no compound. • Sample: Compound activity testing wells. Containing compound+enzyme+substrate. • BG: Compound background control wells. Containing compound+substrate, no enzyme.

[1] = target: COVID-19 (nCoV-2019, SARS-CoV2) Mpro (Severe acute respiratory syndrome coronavirus 2, UniProt P0DTD1); test: SARS-CoV2 Mpro enzymatic assay; type: biochemical; conditions: 25 nM Mpro, 25 μM substrate

T1 sequence (P0C6X1 2966-3267): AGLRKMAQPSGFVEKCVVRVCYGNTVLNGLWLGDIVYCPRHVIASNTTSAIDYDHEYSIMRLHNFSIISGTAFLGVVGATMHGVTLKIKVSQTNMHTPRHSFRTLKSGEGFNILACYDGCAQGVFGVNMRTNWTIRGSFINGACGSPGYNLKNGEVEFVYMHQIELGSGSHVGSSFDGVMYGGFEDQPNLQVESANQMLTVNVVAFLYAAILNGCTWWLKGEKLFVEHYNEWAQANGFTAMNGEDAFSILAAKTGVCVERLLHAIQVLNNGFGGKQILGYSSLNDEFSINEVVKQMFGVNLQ

With CC(C)CC(NC(=O)c1nc2ncccc2[nH]1)C(=O)NC(C#N)CC1CCNC1=O (single isomer, unassigned) [130 (Isomer 1)] the CC50 (Cell viability) was greater than 30000 nM.
Work on COc1cccc2[nH]c(C(=O)NC(CC(C)(F)F)C(=O)NC(C#N)CC3CCNC3=O)cc12 (single isomer, unassigned) [497 (Isomer 2)] yielded an EC50 (HCoV 229E) of less than 2000 nM and an EC50 (229E Mpro) of less than 2000 nM.
With COc1cccc2[nH]c(C(=O)N3CC4(C[C@H]3C(=O)N[C@H](C#N)C[C@@H]3CCCNC3=O)CC(F)(F)C4)cc12 (single isomer, unassigned) [723 (Isomer 1)] the IC50 [1] was 10000 to 30000 nM and the EC50 (229E Mpro) was 10000 to 30000 nM.
COc1cccc2[nH]c(C(=O)N3CC4(C[C@H]3C(=O)N[C@H](C#N)C[C@@H]3CCCNC3=O)CC(F)(F)C4)cc12 (single isomer, unassigned) [723 (Isomer 2)] gave an IC50 [1] of less than 2000 nM and an EC50 (229E Mpro) of less than 2000 nM.
Molecule N#C[C@H](C[C@@H]1CCCNC1=O)NC(=O)[C@@H]1CC2(CN1C(=O)c1cc3cccc(Cl)c3[nH]1)CC(F)(F)C2 (single isomer, unassigned) [743 (Isomer 1)] has an IC50 [1] greater than 30000 nM and an EC50 (229E Mpro) greater than 30000 nM.
Molecule N#C[C@H](C[C@@H]1CCCNC1=O)NC(=O)[C@@H]1CC2(CN1C(=O)c1cc3cccc(Cl)c3[nH]1)CC(F)(F)C2 (single isomer, unassigned) [743 (Isomer 2)] has an IC50 [1] of less than 2000 nM and an EC50 (229E Mpro) of less than 2000 nM.
CC1(C)CCC(CC(C#N)NC(=O)[C@H](CC2CC2)NC(=O)c2cc3cccc(Cl)c3[nH]2)C(=O)N1 (single isomer, unassigned) [749A (Isomer 1)] showed an IC50 [1] of less than 2000 nM.
For COC(=O)NS(=O)(=O)n1nccc1C(=O)NC(CC1CC1)C(=O)NC(C#N)CC1CCCNC1=O (single isomer, unassigned) [787A (Isomer 2)], the IC50 [1] was less than 2000 nM and the EC50 (229E Mpro) was 2000 to 10000 nM.
For CC1(C)CC(C[C@@H](C#N)NC(=O)[C@H](CC2CC2)NC(=O)c2cc3cccc(Cl)c3[nH]2)C(=O)N1 (single isomer, unassigned) [1053 (Isomer 3)], the EC50 (229E Mpro) was 2000 to 10000 nM.
Work on CC1(C)CC(CC(C#N)NC(=O)C(CC2CC2)NC(=O)c2cc3cccc(Cl)c3[nH]2)C(=O)N1 (single isomer, unassigned) [1053 (Isomer 4)] yielded an EC50 (229E Mpro) of less than 2000 nM.
Molecule COc1cccc2[nH]c(C(=O)N[C@H](CC3CC3)C(=O)N[C@H](C#N)C[C@@H]3CCC(C)(C)NC3=O)cc12 (single isomer, unassigned; isomer 1) [787A (Isomer 1)] has an EC50 (229E Mpro) of 2000 to 10000 nM.
Molecule N#C[C@H](C[C@@H]1CCNC1=O)NC(=O)[C@@H]1CS[C@H]2CC[C@H](NC(=O)OCc3ccccc3)C(=O)N21 [Compound 457, Benzyl((3R,6S,8aS)-3-(((S)-1-cyano-2-((S)-2-oxopyrrolidin-3-yl)ethyl)carbamoyl)-5-oxohexahydro-2H-thiazolo[3,2-a]pyridin-6-yl)carbamate] has an EC50 (229E Mpro) greater than 30000 nM.
With Cc1cc(C(=O)N[C@H]2CC[C@@H]3SC[C@@H](C(=O)N[C@H](C#N)C[C@@H]4CCNC4=O)N3C2=O)no1 [Compound 459, N-((3R,6S,8aS)-3-(((S)-1-cyano-2-((S)-2-oxopyrrolidin-3-yl)ethyl)carbamoyl)-5-oxohexahydro-2H-thiazolo[3,2-a]pyridin-6-yl)-5-methylisoxazole-3-carboxamide] the EC50 (229E Mpro) was greater than 30000 nM.
N#C[C@H](C[C@@H]1CCNC1=O)NC(=O)[C@H](CC1CC1)NC(=O)c1nc2c(Cl)cc(Cl)cc2[nH]1 [Compound 525, 4,6-dichloro-N-[(1S)-2-[[(1S)-1-cyano-2-[(3S)-2-oxopyrrolidin-3-yl]ethyl]amino]-1-(cyclopropylmethyl)-2-oxo-ethyl]-1H-benzimidazole-2-carboxamide] gave an EC50 (229E Mpro) of less than 2000 nM.
In the case of N#C[C@H](C[C@@H]1CCNC1=O)NC(=O)[C@H](CC1CC1)NC(=O)c1cc2ccc(Cl)cc2[nH]1 [Compound 529, 6-chloro-N-[(1S)-2-[[(1S)-1-cyano-2-[(3S)-2-oxopyrrolidin-3-yl]ethyl]amino]-1-(cyclopropylmethyl)-2-oxo-ethyl]-1H-indole-2-carboxamide], the EC50 (229E Mpro) is reported as less than 2000 nM.
For N#C[C@H](C[C@@H]1CCNC1=O)NC(=O)[C@H](CC1CC1)NC(=O)c1cc2c(Cl)ccc(Cl)c2[nH]1 [Compound 691, 4,7-dichloro-N-[(1S)-2-[[(1S)-1-cyano-2-[(3S)-2-oxopyrrolidin-3-yl]ethyl]amino]-1-(cyclopropylmethyl)-2-oxo-ethyl]-1H-indole-2-carboxamide], the EC50 (229E Mpro) was less than 2000 nM.
In the case of COc1cc(Cl)c2[nH]c(C(=O)N[C@@H](CC3CC3)C(=O)N[C@H](C#N)C[C@@H]3CCNC3=O)cc2c1 [Compound 695, 7-chloro-N-[(1S)-2-[[(1S)-1-cyano-2-[(3S)-2-oxopyrrolidin-3-yl]ethyl]amino]-1-(cyclopropylmethyl)-2-oxo-ethyl]-5-methoxy-1H-indole-2-carboxamide], the EC50 (229E Mpro) is reported as less than 2000 nM.

Source: patent publication US12145911B2, “Inhibitors of cysteine proteases and methods of use thereof” (priority 2020, dated 2024)
